Experimental data taken from patent publication US20110002843A1, “METHOD OF DETECTING MYOCARDIAL DYSFUNCTION IN PATIENTS HAVING A HISTORY OF ASTHMA OR BRONCHOSPASM” (priority 2005, published 2011).
Where two headings read alike, the source gives them in different places.

Tests used:
[1] = Isolated and denervated atrial preparations, rate
[2] = Single-dose pharmacokinetics, safety and tolerability of 10-minute intravenous infusion in healthy volunteers; format: in vivo, human; details: for Cmax / Tmax / AUC(0-inf) / AUC(0-t) / clearance / half-life / Vd: human, plasma; for Cmax: read-out: Cmax, mean (SD); for AUC(0-inf): read-out: AUC0-∞, mean (SD) (converted); for AUC(0-t): read-out: AUClast, mean (SD) (converted); for Vd: read-out: Vz, mean (SD)
Method: Subjects: This study was conducted at the New Orleans Center for Clinical Research, New Orleans, La., in accordance with US Good Clinical Practice guidelines. Subjects were required to be in generally good health as determined by physical examination and laboratory testing, as well as assessment of vital signs. Exclusion criteria included testing positive on drug screening (drugs of abuse); ingesting caffeine, alcohol, or medication within 24 hours of study entry; or receiving an investigational drug with 30 days of study entry. Women of childbearing potential and men whose female partners were not using an acceptable contraceptive method were excluded. Other exclusion criteria included subjects with known postural hypotension, resting supine systolic blood pressure of 90 mmHg or lower, diastolic blood pressure of 60 mmHg or lower and heart rate of 90 beats/min or greater; history of human immunodeficiency virus infection; positive test result for hepatitis B surface antigen or hepatitis C antibody; and any clinically relevant condition that could potentially confound the analysis or present a safety risk.
Study Methods: The study was designed as a single-center, open-label, nonrandomized, intravenous dose-escalation study in 4 cohorts (n=6 each) of healthy volunteers. The protocol was approved by the institutional review board; all subjects gave written informed consent. Subjects from each cohort were to receive 3 rising doses of binodenoson administered via intravenous infusion over a period of 10 minutes, at a rate not to exceed 6 μg/kg/min. Although the successive doses of binodenoson were administered on the same study day, the washout period between doses was at least 2 hours. Subjects in cohort 1 received consecutive binodenoson doses of 0.1, 0.2 and 0.4 μg/kg; cohort 2 received 0.6, 1 and 2 μg/kg; cohort 3 received 2, 3 and 4 μg/kg; and cohort 4 received 4, 5 and 6 μg/kg.
Serial vital sign monitoring of heart rate, supine systolic blood pressure and diastolic blood pressure was done at screening and during each dosing phase within 10 minutes before infusion, at 2, 4, 6, 8 and 10 minutes during infusion and at 2, 5, 7.5, 10, 15, 20, 30, 45, 60, 90 and 120 minutes after infusion. A 12-lead electrocardiogram (ECG) was obtained at screening and the end of the study. The ECG was monitored via telemetry during the treatment phase, including during the infusions. Monitoring was initiated within 1 hour before dosing and continued until 24 hours after completion of the last dose.
A total of 40 to 42 blood samples were collected during the treatment phase for quantitation of binodenoson in plasma. Before dosing, a polyethylene catheter was inserted into a vein of the forearm contralateral to the infusion site. Blood samples (5 mL) were drawn into prechilled Vacutainer tubes (BD, Franklin Lakes, N.J.) just before infusion (−1 minute), at the midpoint (5 minutes) and end (10 minutes) of infusion and at 2, 5, 7.5, 10, 15, 20, 30, 45, 60, 90 and 120 minutes after the end of infusion. Plasma was separated from cellular material by centrifugation under refrigeration (4° C.) at 4000 rpm for 10 minutes and then stored in cryotubes at −80° C. until analyzed. The total amount of blood taken during the intensive sampling period was approximately 200 mL. Plasma concentrations of binodenoson were determined by a validated high-performance liquid chromatography-mass spectrometry (LC/MS/MS) assay at Phoenix International, Inc. (Montreal, Quebec, Canada).
Pharmacokinetic parameters were derived for each subject's plasma binodenoson concentration-time profile for each binodenoson infusion by use of noncompartmental methods with the statistical software program SAS (SAS Institute, Cary, N.C.). The peak concentration (Cmax) and corresponding time to (Cmax) (tmax) were derived by observation. […]

[3] = 0.4 ug/kg, 0.4 μg/kg iv over 10 minutes
[4] = 0.6 ug/kg, 0.6 μg/kg iv over 10 minutes
[5] = 1 ug/kg, 1 μg/kg iv over 10 minutes
[6] = 2 ug/kg, 2 μg/kg iv over 10 minutes
[7] = 3 ug/kg, 3 μg/kg iv over 10 minutes
[8] = 4 ug/kg, 4 μg/kg iv over 10 minutes
[9] = 6 ug/kg, 6 μg/kg iv over 10 minutes
[10] = 8 ug/kg, 8 μg/kg iv over 10 minutes

SMILES: Nc1nc(N/N=C/C2CCCCC2)nc2c1ncn2[C@@H]1O[C@H](CO)[C@@H](O)[C@H]1O (stereo in doubt) [Binodenoson, 2-{2-[(Cyclohexyl)methylene]hydrazino}adenosine]
- atrial rate [1]: did not increase the rate
- maximum increase in heart rate ([2]; 1 μg/kg dose): 29 beats/min
- mean maximal increase in systolic blood pressure from baseline ([2]; 1 μg/kg dose): 8.8 mmHg
- maximum increase in heart rate ([2]; 6 μg/kg dose): 66.3 beats/min
- mean maximal increase in systolic blood pressure from baseline ([2]; 6 μg/kg dose): 27.9 mmHg
- volunteers reporting at least 1 AE ([2]; 21 of 24 volunteers): 83%
- AEs judged related to administration of binodenoson ([2]; all doses): 99%
- AEs of mild severity ([2]; all doses): 82%
- AEs of moderate severity ([2]; all doses): 17%
- AEs that began during drug infusions and resolved within 30 minutes of onset ([2]; all doses): 75%
- ECG changes ([2]; all doses): no clinically significant ECG changes
- serious AEs ([2]; all doses): no serious AEs
- frequency of dizziness ([2]; doses of 1 μg/kg or lower): 0%
- frequency of headache ([2]; doses of 1 μg/kg or lower): 7%
- frequency of nausea/vomiting ([2]; doses of 1 μg/kg or lower): 0%
- frequency of paresthesia ([2]; doses of 1 μg/kg or lower): 3%
- frequency of vasodilation ([2]; doses of 1 μg/kg or lower): 14%
- frequency of dizziness ([2]; doses of 2 μg/kg or greater): 24%
- frequency of headache ([2]; doses of 2 μg/kg or greater): 60%
- frequency of nausea/vomiting ([2]; doses of 2 μg/kg or greater): 49%
- frequency of paresthesia ([2]; doses of 2 μg/kg or greater): 19%
- frequency of vasodilation ([2]; doses of 2 μg/kg or greater): 54%
- tolerability ([2]; doses ranging from 0.4 μg/kg to 6 μg/kg): well tolerated
- Cmax [2, 3]: 0.9 ng/mL
- Cmax [2, 4]: 1.1 ng/mL
- Cmax [2, 5]: 2.1 ng/mL
- Cmax [2, 6]: 3.9 ng/mL
- Cmax [2, 7]: 6.2 ng/mL
- Cmax [2, 8]: 8.7 ng/mL
- Cmax [2, 9]: 12.5 ng/mL
- Cmax [2, 10]: 12.1 ng/mL
- Tmax [2, 3]: 10 min
- AUC(0-inf) [2, 3]: 0.207 ng·h/mL
- AUC(0-t) [2, 3]: 0.15 ng·h/mL
- clearance ([2]; 0.4 ug/kg, 0.4 μg/kg iv over 10 minutes, read-out: CL, mean (SD)): 33.4 mL/min/kg
- half-life ([2]; 0.4 ug/kg, 0.4 μg/kg iv over 10 minutes, read-out: T1/2, mean (SD)): 8.8 min
- Vd [2, 3]: 0.39 L/kg
- Tmax [2, 4]: 7.5 min
- AUC(0-inf) [2, 4]: 0.353 ng·h/mL
- AUC(0-t) [2, 4]: 0.208 ng·h/mL
- clearance ([2]; 0.6 ug/kg, 0.6 μg/kg iv over 10 minutes, read-out: CL, mean (SD)): 28.8 mL/min/kg
- half-life ([2]; 0.6 ug/kg, 0.6 μg/kg iv over 10 minutes, read-out: T1/2, mean (SD)): 11.7 min
- Vd [2, 4]: 0.46 L/kg
- Tmax [2, 5]: 10 min
- AUC(0-inf) [2, 5]: 0.465 ng·h/mL
- AUC(0-t) [2, 5]: 0.415 ng·h/mL
- clearance ([2]; 1 ug/kg, 1 μg/kg iv over 10 minutes, read-out: CL, mean (SD)): 38.3 mL/min/kg
- half-life ([2]; 1 ug/kg, 1 μg/kg iv over 10 minutes, read-out: T1/2, mean (SD)): 7.4 min
- Vd [2, 5]: 0.4 L/kg
- Tmax [2, 6]: 10 min
- AUC(0-inf) [2, 6]: 0.928 ng·h/mL
- AUC(0-t) [2, 6]: 0.855 ng·h/mL
- clearance ([2]; 2 ug/kg, 2 μg/kg iv over 10 minutes, read-out: CL, mean (SD)): 33 mL/min/kg
- half-life ([2]; 2 ug/kg, 2 μg/kg iv over 10 minutes, read-out: T1/2, mean (SD)): 10 min
- Vd [2, 6]: 0.48 L/kg
- Tmax [2, 7]: 9.5 min
- AUC(0-inf) [2, 7]: 1.42 ng·h/mL
- AUC(0-t) [2, 7]: 1.31 ng·h/mL
- clearance ([2]; 3 ug/kg, 3 μg/kg iv over 10 minutes, read-out: CL, mean (SD)): 35.4 mL/min/kg
- half-life ([2]; 3 ug/kg, 3 μg/kg iv over 10 minutes, read-out: T1/2, mean (SD)): 12.8 min
- Vd [2, 7]: 0.65 L/kg
- Tmax [2, 8]: 10 min
- AUC(0-inf) [2, 8]: 2.03 ng·h/mL
- AUC(0-t) [2, 8]: 1.93 ng·h/mL
- clearance ([2]; 4 ug/kg, 4 μg/kg iv over 10 minutes, read-out: CL, mean (SD)): 39.8 mL/min/kg
- half-life ([2]; 4 ug/kg, 4 μg/kg iv over 10 minutes, read-out: T1/2, mean (SD)): 13 min
- Vd [2, 8]: 0.69 L/kg
- Tmax [2, 9]: 9 min
- AUC(0-inf) [2, 9]: 2.32 ng·h/mL
- AUC(0-t) [2, 9]: 2.22 ng·h/mL
- clearance ([2]; 6 ug/kg, 6 μg/kg iv over 10 minutes, read-out: CL, mean (SD)): 33.9 mL/min/kg
- half-life ([2]; 6 ug/kg, 6 μg/kg iv over 10 minutes, read-out: T1/2, mean (SD)): 14.9 min
- Vd [2, 9]: 0.7 L/kg
- Tmax [2, 10]: 10.5 min
- AUC(0-inf) [2, 10]: 2.72 ng·h/mL
- AUC(0-t) [2, 10]: 2.6 ng·h/mL
- clearance ([2]; 8 ug/kg, 8 μg/kg iv over 10 minutes, read-out: CL, mean (SD)): 39.5 mL/min/kg
- half-life ([2]; 8 ug/kg, 8 μg/kg iv over 10 minutes, read-out: T1/2, mean (SD)): 12.3 min
- Vd [2, 10]: 0.68 L/kg
- clearance ([2]; intravenous, across all dose levels, read-out: mean systemic clearance): 34.4 ± 7.5 mL/min/kg
- half-life ([2]; intravenous, across all doses, read-out: terminal half-life, harmonic mean): 10 ± 4 min
- relationship between clearance (CL) and body weight (BW) ([2]; linear mixed-effect model, p=0.004): CL=−0.19+0.039 BW
- AUC0-t as share of total AUC0-∞ ([2]; trapezoidal rule): greater than 80%
